Test results as given in article PMC10733463, “Berberine-microbiota interplay: orchestrating gut health through modulation of the gut microbiota and metabolic transformation into bioactive metabolites” (Frontiers in Pharmacology, 2023).

Legend:
[1] = tested on: T84 cells; assay: Cell viability assay (neutral red uptake), T84; assay type: cell-based, human; details: 0.1 µg berberine/mL medium
Method: Caco-2 cells (human intestinal epithelial cells) were cultured in MEM (Gibco, Paisley, United Kingdom) supplemented with 10% Fetal Bovine Serum (FBS), 1% L-glutamine (Gibco), 1% MEM NEAA (Gibco) and 1% penicillin/streptomycin (P/S) (Gibco). T84 cells (human intestinal epithelial cells) were cultured in 1:1 DMEM/F12 (Gibco) supplemented with 10% FBS, 1% L-glutamine and 1% P/S (37°C, 5% CO2). The neutral red uptake assay was employed to evaluate the potential cytotoxicity of berberine ([Repetto et al., 2008]). Briefly, Caco-2 and T84 were seeded at 2 × 10^5 cells/well and 5 × 10^4 cells/well respectively in 96-well plates (Greiner Bio-one, Frickenhausen, Germany) and cultivated for 24 h in antibiotic-free medium (treatment medium) for attachment. […] A 10-fold dilution of sodium dodecyl sulfate (Sigma-Aldrich), ranging from 10 mg/mL to 10^−6 mg/mL was used a positive control. Cells were washed with 200 µL pre-warmed HBSS(+) (Gibco) and then treated with 150 µL of Neutral Red medium, consisting of 1:80 Neutral Red solution 0.33% (Sigma-Aldrich)/treatment medium for 3 h. Cells were washed in 200 µL HBSS(+) and treated with 100 µL of Neutral Red Desorb solution, consisting of 1% glacial acetic acid (Merck, Darmstadt, Germany), 50% ethanol (95%, Chem-Lab, Zedelgem, Belgium) and 49% deionized water.

[2] = UPLC-MS/MS quantification of berberine and metabolites in plasma; assay type: in vivo, Ross 308 broiler chickens; details: lowest berberine supplementation level (0.1 g/kg feed)
Source text: The study was undertaken following the guidelines of the ethics committee of the Faculty of Veterinary Medicine and Bioscience Engineering, Ghent University, in accordance with the EU Directive 2010/63/EU. One-day-old Ross 308 male broilers were obtained from a local hatchery and housed in pens on wood shavings. They were allotted into 4 groups, with three replicate pens per group each housing 8 chickens. The animals were not vaccinated. Water and commercial starter feed (day 1–12, FARM 1 Mash, Country’s Best, Versele Laga, Deinze, Belgium) or grower (day 13–21, FARM 2 mash, Country’s Best, Versele Laga, Deinze, Belgium) were provided ad libitum. The control group received the standard non-supplemented diets, whereas the chickens in other groups were fed the same feed supplemented with 0.1, 0.5 or 1 g berberine/kg feed throughout the whole trial period. At day 21, 4 birds per pen were weighted then euthanized by sodium pentobarbital injection for sampling. Individual jejunal, ileal, caecal and colonic contents were stored at −20°C for microbiota composition analysis (16S rRNA gene sequencing). Additionally, ileal and caecal content samples were collected and stored at −20°C for berberine and berberine-derived metabolite quantification. Duodenal tissue samples were collected and fixed in 4% phosphate buffered formaldehyde for histological analysis. Blood samples were collected in heparin tubes and centrifuged at 524 g for 10 min to recover the plasma fraction, which was further mixed with 17 mg/mL L-ascorbic acid for dihydroberberine stabilization, and stored at −20°C for berberine and berberine-derived metabolite quantification.
The column temperature was maintained at 25°C. The autosampler temperature was set at 10°C.
A 137.5 µL plasma sample containing 17 mg/mL L-ascorbic acid was used for sample extraction. The ascorbic acid solution was added to prevent oxidation of dihydroberberine to berberine during sample storage ([Feng et al., 2015]). The plasma sample was transferred to an OstroTM 96 well-plate (25 mg) (Waters). Subsequently, 50 µL Milli-Q water and 25 µL of an internal standard solution containing 100 ng/mL of both berberine-d6 and tetrahydropalmatine were added. A 640 µL volume of 1% (v/v) formic acid solution in acetonitrile (1/3 ratio) was added, followed by gentle mixing. Vacuum was applied on the Ostro™ plate for 5 min and the eluate was collected in a 2 mL square 96-well collector plate. The sample was transferred in a glass tube and evaporated at 40°C under a gentle stream of nitrogen in a Pierce (Rockford, United States) Reacti-Therm III™ Heating Module and Reacti-Vap™ III Module. The dried sample extract was reconstituted in 500 µL Milli-Q water, followed by injection of a 5 µL sample aliquot onto the UPLC-MS/MS apparatus. Quantification was based on the ratio of the analyte peak area compared to the peak area of the internal standard berberine-d6.
Calibration standards and quality control samples were prepared as follows: 137.5 µL of blank plasma stabilized with 17 mg/mL L-ascorbic acid were supplemented with 25 µL mixed working solutions of berberine and metabolites (except dihydroberberine) at different levels, 25 µL of dihydroberberine working solution, stabilized with 17 mg/mL L-ascorbic acid, at different levels and 25 µL of an internal standard solution containing 100 ng/mL of both berberine-d6 and tetrahydropalmatine. The calibration curve was in the 0.1–100 ng/mL range, including 0.1, 0.5, 1, 2.5, 5, 10, 25, […], 50 and 100 ng/mL levels.
The UPLC-MS/MS analysis method for the quantification of berberine and berberine-derived metabolites both in plasma and ileal/caecal intestinal content was validated to the guidelines of the European Medicines Agency, i.e., of the Committee for Veterinary Medicinal Products (EMEA/CVMP/VICH/463202/2009) and of the Committee for Medicinal Products for Human Use (EMEA/CHMP/EWP/192217/20), and in accordance with the EU Directive 2002/657/EC. […]

Quantification in plasma [2]	Structure (SMILES)	Cytotoxicity (Neutral Red Uptake) [1]
–	COc1ccc2cc3[n+](cc2c1OC)CCc1cc2c(cc1-3)OCO2 [Berberine, Berberine chloride]	considered safe
could also not be quantified	COc1ccc2cc3[n+](cc2c1O)CCc1cc2c(cc1-3)OCO2 [Berberrubine, berberrubine chloride]	–
could also not be quantified	COc1cc2c(cc1O)CC[n+]1cc3c(OC)c(OC)ccc3cc1-2 [Jatrorrhizine, Jatrorrhizine chloride]	–
